The text below walks through data of patent US12571800B2, “Means and methods for treating angiogenesis-related diseases” (Heidelberg Biotech GmbH, priority 2011, dated 2026).

The test system of one data set is Wild type LLC tumors. The data set is described as follows: Wild type LLC lung cancer model, prevention trial. It is filed as in vivo, C57B16 mice. As to the method: Wild type LLC tumors (10.000 cells) were implanted s.c. in C57B16 mice. Tumors were sham treated (PBS, control), with the reference FN-mimetic-peptide (“FN-Motif”) containing only the “[…]” sequence (SEQ ID NO: 8) or with murine Superstatin (SEQ ID NO: 7) at the dose of 50 μg peptide in 100 μl PBS every 12 h s.c. (n: 5 in each group). Treatment was started 4 days after tumor implantation (“prevention trial”) and continued for 24 days. […] Tumor size reaching 1000 mm^2 was considered as death event in the Kaplan-Meier analysis.
Tumors were sham treated (PBS), with the reference FN-mimetic-peptide containing only the “[…]” sequence (SEQ ID NO: 8; FN motif) or with murine Superstatin (SEQ ID NO: 7) at the dose of 50 μg peptide in 100 μl PBS every 12 h s.c. (n: 5 in each group). Treatment was started 4 days after tumor implantation (“prevention trial”) and continued for 24 days. […] Tumor size reaching 1000 mm^2 was considered as death event in the Kaplan-Meier analysis.

The next data set has as its system LLC FN −/− tumor cells. The data set is described as follows: Fibronectin knockdown LLC tumor model. The format is in vivo, C57B16 mice. Conditions: treatment started day 4 post implantation; p<0.01 vs control or Fc-Endostatin. An excerpt: In contrast, the Superstatin peptide (SEQ ID NO: 7) exerts potent tumor growth inhibition in FN −/− LLC tumors growing s.c. in C57B16 mice.
Once the efficacy of the Superstatin peptide (SEQ ID NO: 7) was confirmed, the inventors moved toward the second strategy to validate the proposed concept that FN signaling is critical for oligomeric NC-1 to exert their anti-angiogenic and anti-tumoral effects. […] LLC FN −/− tumor cells (100.000) were implanted in C57B16 mice and treatment with dimeric murine Fc-Endostatin vs. Superstatin was started on day 4 post implantation. Knockdown of FN rendered LLC tumors resistant to oligomeric NC-1 (Fc-Endostatin).

The next data set has as its target T1, VEGF (Homo sapiens, UniProt P15692).
T1 sequence (P15692 207-395 limits assumed): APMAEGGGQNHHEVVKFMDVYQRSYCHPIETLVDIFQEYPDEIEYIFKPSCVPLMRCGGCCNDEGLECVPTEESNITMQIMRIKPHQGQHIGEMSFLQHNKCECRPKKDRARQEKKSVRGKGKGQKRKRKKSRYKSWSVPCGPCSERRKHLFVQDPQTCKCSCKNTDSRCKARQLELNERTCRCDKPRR
Put plainly: Competition with VEGF-ED-dimer (Fc-Endostatin) binding. The note with it: preliminary data. An excerpt:
The first approach was to engineer a minimal peptide sequence that would mimic the key effects of the ED-FN complex. […] Preliminary data by the present inventors indicate that this region itself may be capable of binding to VEGF and that the two histidines (Zinc binding domain) in this peptide sequence may be critical for VEGF binding. […] On the other hand, fibronectin contains two active motifs that are critical for its binding to ITGA5B1, i.e. a PHSRN-(SEQ ID NO:20) and a RGD-dependent motif.

Data set [1] has as its system Fc-Endostatin-resistant LLC cells (Endo P4). Put plainly: Fc-Endostatin-resistant LLC tumors, passage 5, IGF1R inhibitor. The format is in vivo, C57B16 mice. An excerpt: Previously generated passage four Fc-Endostatin-resistant LLC cells (Endo P4, as described in the following examples) were subcutaneously injected to C57B16 mice.
Data set [2] deals with T2, fibronectin (Homo sapiens, UniProt P02751). Put plainly: Elisa, binding to fibronectin. Conditions: proteins coated at 10 μg/ml; fibronectin as ligand at the same concentration. Here is the method:
Coating of proteins were done in PBS at concentration of 10 μg/ml. Fibronectin served as a ligand at the same concentration. All buffers contained 2% BSA, 0.1% Tween-20.
Three protein constructs human Fc (control), dimeric human (h)Fc-Endostatin and hFc-VEGF were employed. […] Artificial endostatin dimer was generated by introducing a single mutation in amino acid position 7 of endostatin (changing glutamine to cysteine) in the recombinant Fc-endostatin. Upon digestion of this mutant protein by enterokinase, endostatin dimer is produced, linked by a disulfide bond (Kuo et al., loc. cit.).

Data set [3] addresses T2, fibronectin. The data set is described as follows: Biacore (SPR) equilibrium binding constants to fibronectin. The note with it: fibronectin 0.78 nM-100 nM over immobilized protein; values only in FIG. 1C. Here is the method: Fibronectin samples were prepared by serial dilution into 0.01 M Hepes, pH 7.4, 0.15 M NaCl, 0.05% Surfactant containing 1 mg/ml BSA in the range 0.78 nM-100 nM and flowed over control and derivatized surfaces for three minutes at a flow-rate of 60 μl/min. Dissociation phases were monitored for 5 minutes. Zero concentration blank buffer cycles were included as negative control samples. Sensor surfaces were regenerated using a 1 minute injection of 1 M ethanolamine, pH 8.5 following each interaction analysis cycle. Non-specific binding effects to sensor surface CM4 were not observed. Calculated ka, kd and KD are shown. Different curves correspond to different concentrations of fibronectin.
1.3 Surface Plasmon Resonance (SPR) binding assays. This analysis provides for a unique method for measuring equilibrium constants between two binding partners. It is able to evaluate the kinetics of an interaction by recording the rates of complex formation (ka) and dissociation (kd) followed by employing a software which determines the values of these two parameters. Equilibrium constant (KD) is obtained by calculating the ration of kd/ka Human VEGF (R&D), endostatin, endostatin dimer and human NC-1 (hNC-1) were diluted to 50 μg/ml in 10 mM Sodium Acetate, pH 5.5 and immobilized onto series S sensor chip(s) CM4 via a standard N-ethyl-N′-(dimethyl-aminopropyl)carbodiimide/N-hydroxysuccinimide (EDC/NHS) amine coupling procedures. Control surfaces were prepared similarly without protein derivatization and utilized as a reference surface for compound binding experiments.
Binding measurements were performed using a Biacore™ (GE Healthcare, Uppsala, Sweden) instrument which employs surface plasmon resonance to detect and monitor molecular interactions.
Data analysis was carried out using Biacore T100 evaluation software v1.1.1. Data were prepared by subtraction of reference surface data and blank buffer sample data, a procedure commonly referred to as ‘double referencing’ and fitted to a 1:1 langmuir binding model.
In order to measure equilibrium binding constants for the above proteins, a Biacore system was employed. […] Fc-endostatin imposes a dimeric structure on the two molecules of endostatin at the C-terminus of Fc dimer.

In data set [4] the test system is human melanoma cancer cells (A2058). Put plainly: A2058 human melanoma tumors in nude mice. The format is in vivo. The note with it: end of experiment; s.c. once a day; hNC-1 100 μg/mouse, endostatin 100 and 500 μg/mouse. As to the method: 4-6 tumor-bearing nude mice in each group were subcutaneously (s.c.) treated with hNC-1 (100 μg/mouse once a day), clinical-grade endostatin (100 and 500 μg/mouse once a day) or PBS. Treatment was stopped prior to the development of necrosis. Sites of injection were away from tumors. Tumor sizes and the ratio of treated/control (T/C) is shown.
1.4 Animal and tumor models. All animal procedures were carried out in compliance with Children's Hospital Boston guidelines Protocols were approved by the Institutional Animal Care and Use Committee. Eight-week-old male (24-27 g) nude/nude mice (Massachusetts General Hospital, Boston, MA) were used. Mice were acclimated, caged in groups of five in a barrier care facility, and fed animal chow and water ad libitum. Animals were euthanized by CO2 inhalation. Human melanoma cell line A2058 was used for animal studies. A suspension of 2×10^6 tumor cells in 0.1 ml of PBS was injected subcutaneously (s.c.) into the dorsa of mice at the proximal midline. Mice were weighed and tumors were monitored twice a week in two diameters with digital calipers. Tumor volumes were determined using a^2×b×0.52 (where a is the shortest and b is the longest diameter). Tumors were allowed to grow to ˜100 mm^3 and mice were randomized. Treatment was by bolus s.c. injections. After experiments were completed, tumors and organs were excised and fixed in either 4% paraformaldehyde or were snap frozen. Four to six mice were treated with each group.
2.6 hNC-1 suppresses tumor growth in vivo. In order to compare anti-tumor activities of NC-1 and endostatin, nude mice bearing human melanoma cell line A2058 were employed. Two doses of clinical grade endostatin differing by 5-fold in concentration of protein (low and high doses) were used. […] It cannot be ruled out the possibility that injected NC-1 becomes degraded upon entering the circulation.

The conditions of data set [5]: in vivo; cited from earlier work.
The conditions of data set [6]: cited from earlier work.
In a further data set the target is α5β1 (Homo sapiens, UniProt P05556+P08648). The data set is described as follows: Direct binding to integrin α5β1 (Elisa, immunoprecipitation, cell adhesion). The note with it: immunoprecipitation and cell adhesion assays. The text has this: Endostatin binding to two integrins αvβ3 and α5β1 was first reported in 2001 (Rehn et al. 2001, PNAS 98, 1024). Presumably, such a binding inhibits interactions of fibronectin with these integrins. […] Endostatin lacks the sequence RGD. Consequently, such a binding must be mediated by other amino acids on endostatin.
Chain of α5β1 (P08648 42-894 limits assumed): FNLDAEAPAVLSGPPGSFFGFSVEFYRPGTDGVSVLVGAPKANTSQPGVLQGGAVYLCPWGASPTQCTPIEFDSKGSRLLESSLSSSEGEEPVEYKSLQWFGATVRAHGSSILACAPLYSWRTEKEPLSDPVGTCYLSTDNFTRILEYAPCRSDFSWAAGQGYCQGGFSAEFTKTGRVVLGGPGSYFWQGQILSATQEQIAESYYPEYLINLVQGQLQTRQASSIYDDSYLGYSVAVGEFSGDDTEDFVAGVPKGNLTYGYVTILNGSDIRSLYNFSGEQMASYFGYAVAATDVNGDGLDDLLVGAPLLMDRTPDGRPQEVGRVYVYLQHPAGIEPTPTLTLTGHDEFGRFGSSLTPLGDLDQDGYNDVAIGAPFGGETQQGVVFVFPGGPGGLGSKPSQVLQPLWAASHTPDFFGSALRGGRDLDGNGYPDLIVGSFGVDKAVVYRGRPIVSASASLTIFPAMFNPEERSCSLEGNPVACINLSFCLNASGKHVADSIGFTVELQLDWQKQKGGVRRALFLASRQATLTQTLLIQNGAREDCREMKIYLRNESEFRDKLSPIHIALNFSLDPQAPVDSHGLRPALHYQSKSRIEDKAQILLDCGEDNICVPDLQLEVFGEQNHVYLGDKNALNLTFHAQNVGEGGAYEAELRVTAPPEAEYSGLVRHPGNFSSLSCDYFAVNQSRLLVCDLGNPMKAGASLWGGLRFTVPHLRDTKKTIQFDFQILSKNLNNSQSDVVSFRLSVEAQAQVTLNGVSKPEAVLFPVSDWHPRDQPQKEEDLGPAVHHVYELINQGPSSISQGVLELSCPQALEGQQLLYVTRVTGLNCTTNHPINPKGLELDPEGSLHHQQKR
Chain of α5β1 (P08648 895-1049 limits assumed): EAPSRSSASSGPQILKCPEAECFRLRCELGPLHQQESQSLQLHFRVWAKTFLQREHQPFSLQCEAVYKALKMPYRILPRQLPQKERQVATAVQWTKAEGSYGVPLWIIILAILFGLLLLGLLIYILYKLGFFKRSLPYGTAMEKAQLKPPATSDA
Chain of α5β1 (P05556 21-798): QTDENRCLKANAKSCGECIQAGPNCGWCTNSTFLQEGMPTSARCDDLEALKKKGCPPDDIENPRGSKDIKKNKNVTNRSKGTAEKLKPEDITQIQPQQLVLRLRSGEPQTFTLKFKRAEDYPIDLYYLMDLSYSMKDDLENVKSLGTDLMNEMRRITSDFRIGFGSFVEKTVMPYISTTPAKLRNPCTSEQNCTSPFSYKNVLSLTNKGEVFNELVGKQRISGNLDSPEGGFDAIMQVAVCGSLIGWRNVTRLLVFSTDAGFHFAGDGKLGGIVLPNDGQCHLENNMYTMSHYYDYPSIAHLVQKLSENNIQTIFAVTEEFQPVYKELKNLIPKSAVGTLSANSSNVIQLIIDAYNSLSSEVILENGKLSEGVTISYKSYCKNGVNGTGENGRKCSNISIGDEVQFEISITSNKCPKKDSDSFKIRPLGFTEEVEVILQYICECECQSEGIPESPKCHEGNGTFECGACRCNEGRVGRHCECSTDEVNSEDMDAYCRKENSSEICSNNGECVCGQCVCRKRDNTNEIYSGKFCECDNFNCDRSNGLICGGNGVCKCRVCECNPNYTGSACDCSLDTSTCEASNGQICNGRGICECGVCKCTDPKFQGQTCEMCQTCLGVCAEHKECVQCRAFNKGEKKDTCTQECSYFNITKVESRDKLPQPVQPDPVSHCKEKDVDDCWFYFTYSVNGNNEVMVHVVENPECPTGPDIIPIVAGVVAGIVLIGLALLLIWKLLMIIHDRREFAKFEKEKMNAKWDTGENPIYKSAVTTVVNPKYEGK

[7] abbreviates: 50 μg peptide every 12 h s.c., day 4 on for 24 days.

T2 sequence (P02751 32-2477): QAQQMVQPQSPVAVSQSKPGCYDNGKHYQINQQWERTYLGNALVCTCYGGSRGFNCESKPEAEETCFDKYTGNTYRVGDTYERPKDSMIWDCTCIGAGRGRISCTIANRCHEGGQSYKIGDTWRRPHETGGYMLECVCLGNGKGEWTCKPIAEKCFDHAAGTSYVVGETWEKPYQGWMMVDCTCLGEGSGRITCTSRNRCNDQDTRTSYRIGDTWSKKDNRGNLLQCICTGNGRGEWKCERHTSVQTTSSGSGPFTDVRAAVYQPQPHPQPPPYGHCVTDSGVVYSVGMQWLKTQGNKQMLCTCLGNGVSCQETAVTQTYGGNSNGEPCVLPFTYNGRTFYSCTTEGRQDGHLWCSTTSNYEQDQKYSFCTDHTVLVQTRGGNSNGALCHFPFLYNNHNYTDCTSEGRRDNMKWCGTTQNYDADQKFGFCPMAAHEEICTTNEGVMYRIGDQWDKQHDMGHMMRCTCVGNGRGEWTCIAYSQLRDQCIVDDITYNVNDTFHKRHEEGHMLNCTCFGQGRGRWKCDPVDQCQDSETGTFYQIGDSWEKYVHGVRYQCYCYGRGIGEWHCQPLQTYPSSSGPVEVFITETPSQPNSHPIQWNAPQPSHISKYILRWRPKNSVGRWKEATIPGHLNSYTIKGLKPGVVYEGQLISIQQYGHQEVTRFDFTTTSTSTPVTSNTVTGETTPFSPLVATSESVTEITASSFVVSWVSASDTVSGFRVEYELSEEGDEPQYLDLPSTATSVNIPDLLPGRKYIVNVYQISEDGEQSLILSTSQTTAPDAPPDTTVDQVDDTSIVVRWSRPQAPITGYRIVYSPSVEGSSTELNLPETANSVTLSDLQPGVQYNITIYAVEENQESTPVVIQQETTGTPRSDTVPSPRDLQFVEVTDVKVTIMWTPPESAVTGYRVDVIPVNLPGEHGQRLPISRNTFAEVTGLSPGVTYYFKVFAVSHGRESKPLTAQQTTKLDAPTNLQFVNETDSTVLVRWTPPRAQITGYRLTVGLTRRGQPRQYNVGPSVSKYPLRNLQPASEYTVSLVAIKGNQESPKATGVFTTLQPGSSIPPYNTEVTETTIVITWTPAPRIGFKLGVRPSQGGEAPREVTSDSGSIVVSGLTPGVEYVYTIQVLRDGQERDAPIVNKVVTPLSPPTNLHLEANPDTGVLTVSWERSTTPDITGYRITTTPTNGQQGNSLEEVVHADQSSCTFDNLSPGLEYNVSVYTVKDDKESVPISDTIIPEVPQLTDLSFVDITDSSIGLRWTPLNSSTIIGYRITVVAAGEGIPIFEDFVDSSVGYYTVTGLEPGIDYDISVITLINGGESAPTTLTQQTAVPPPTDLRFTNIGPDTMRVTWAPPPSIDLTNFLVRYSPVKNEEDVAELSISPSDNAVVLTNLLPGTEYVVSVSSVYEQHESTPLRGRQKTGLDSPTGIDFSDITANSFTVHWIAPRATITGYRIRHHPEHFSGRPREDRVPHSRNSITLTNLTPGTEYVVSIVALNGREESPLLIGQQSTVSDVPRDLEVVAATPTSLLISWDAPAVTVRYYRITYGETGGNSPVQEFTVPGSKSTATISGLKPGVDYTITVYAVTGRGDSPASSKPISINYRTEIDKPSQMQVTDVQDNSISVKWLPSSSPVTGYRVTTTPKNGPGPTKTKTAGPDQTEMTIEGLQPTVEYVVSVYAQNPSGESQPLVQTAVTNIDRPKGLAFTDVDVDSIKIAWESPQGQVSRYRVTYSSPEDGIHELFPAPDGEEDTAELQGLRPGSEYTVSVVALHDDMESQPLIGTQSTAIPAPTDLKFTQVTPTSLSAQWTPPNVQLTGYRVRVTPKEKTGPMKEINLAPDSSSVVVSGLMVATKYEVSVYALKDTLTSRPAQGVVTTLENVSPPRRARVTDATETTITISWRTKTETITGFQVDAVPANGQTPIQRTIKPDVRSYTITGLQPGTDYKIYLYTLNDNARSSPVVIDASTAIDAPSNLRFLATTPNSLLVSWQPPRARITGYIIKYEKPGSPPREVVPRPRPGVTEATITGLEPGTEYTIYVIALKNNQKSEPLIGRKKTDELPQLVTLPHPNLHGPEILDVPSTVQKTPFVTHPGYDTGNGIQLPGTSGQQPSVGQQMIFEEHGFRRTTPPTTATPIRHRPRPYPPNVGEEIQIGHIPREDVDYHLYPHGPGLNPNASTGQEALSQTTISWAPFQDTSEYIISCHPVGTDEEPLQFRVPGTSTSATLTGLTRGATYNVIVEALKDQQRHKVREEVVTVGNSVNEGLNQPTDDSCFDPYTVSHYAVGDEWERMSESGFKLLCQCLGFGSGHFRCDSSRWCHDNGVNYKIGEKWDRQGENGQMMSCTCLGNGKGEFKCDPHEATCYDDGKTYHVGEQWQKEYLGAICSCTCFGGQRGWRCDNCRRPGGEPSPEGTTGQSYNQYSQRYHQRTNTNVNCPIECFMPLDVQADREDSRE

Regarding “Superstatin: HTHQDFQPVLHLVLYAVTGRGDSPASSK (SEQ ID NO: 7), NC1-ED Motif-FN-Motif hybrid (listed as Mus musculus)”, the tumor growth entry with Wild type LLC tumors (setting [7]) is on record as “potently inhibit tumor growth”. In addition, the “survival (Kaplan-Meier) as compared to control” value with Wild type LLC tumors (50 μg peptide every 12 h s.c., day 4 on for 24 days, p<0.03 by log-rank test) is “significantly prolonged survival”. Moreover, in the data set on Wild type LLC tumors (n: 5 in each group), the “tumors growing during the treatment period” value was “only a single tumor grew”. Also, the “tumor growth in FN −/− LLC tumors” value in the data set with LLC FN −/− tumor cells is “significantly inhibited tumor growth”.
Regarding “FN-Motif: LYAVTGRGDSPASSK (SEQ ID NO: 8; same sequence as SEQ ID NO: 11) (listed as Mus musculus) [reference compound]”, the tumor growth result in the data set on Wild type LLC tumors (setting [7]) is “no significant improvement in prevention of tumor growth”.
Take “mP1-H1/3A: ATAQDFQPVLHLVALNTPLSGGMRGIR (SEQ ID NO: 19) (mP1-H1/3A)”: the “competition with VEGF-ED-dimer (Fc-Endostatin) binding” value in the data set with VEGF is “failed to compete”.
Consider `COc1cc([C@@H]2c3cc4c(cc3[C@H](O)[C@H]3COC(=O)[C@@H]23)OCO4)cc(OC)c1OC` [PPP, cyclolignan picropodophyllin], for which, in data set [1] (20 mg/kg IP, sequential to mFc-Endo), the “tumor growth, sequential IGF1R inhibition” value is reported as “inhibited tumor growth”. In data set [1] (concurrent with mFc-Endo), the “tumor growth, concurrent administration” value was “only partially reversed the enhanced growth kinetic”. Also, the “protein expression in passage 5 LLC tumors (Western blot)” value in data set [1] (mouse, in vivo) is recorded as “partially reversed this phenotype”.
For VEGF [reference compound], the “binding to fibronectin (Elisa)” value at fibronectin [2] was “bound fibronectin”. In addition, the “equilibrium binding constant to fibronectin (Biacore)” value (from here on “equilibrium binding constant”) on fibronectin [3] is “High affinity constants”.

B1: endostatin: 183-amino acid proteolytic cleavage fragment corresponding to the C-terminus of collagen 18 (protein, UniProt P39060 1572-1754, looked up)
Endostatin: HSHRDFQPVLHLVALNSPLSGGMRGIRGADFQCFQQARAVGLAGTFRAFLSSRLQDLYSIVRRADRAAVPIVNLKDELLFPSWEALFSGSEGPLKPGARIFSFDGKDVLRHPTWPQKSVWHGSDPNGRRLTESYCETWRTEAPSATGQASSLLGGRLLGQSAASCHHAYIVLCIENSFMTASK
modifications: Endostatin
Consider B1, for which the “binding to fibronectin (Elisa)” value in the data set with fibronectin [2] is “did not”. In addition, the “equilibrium binding constant” value with fibronectin [3] was “No binding was detected”. The “inhibition of tumor growth” value in data set [4] worked out at 48%. The half-life in circulation entry in [5] is on record as “very short”. In [6] (in vivo), the “anti-tumor activity in clinical trials” value is listed as “did not demonstrate substantial endostatin anti-tumor activity”. In addition, the “safety in clinical trials” value in [6] (variety of dose schedules) is “very safe drug”. In addition, the “direct binding to α5β1” value in the data set with α5β1 is listed as “without success”.

B2: Endostatin dimer: disulfide-linked endostatin dimer, glutamine to cysteine at position 7, released from Fc-endostatin by enterokinase (protein, UniProt P39060 1572-1754, looked up, variant Q7C)
Endostatin: HSHRDFCPVLHLVALNSPLSGGMRGIRGADFQCFQQARAVGLAGTFRAFLSSRLQDLYSIVRRADRAAVPIVNLKDELLFPSWEALFSGSEGPLKPGARIFSFDGKDVLRHPTWPQKSVWHGSDPNGRRLTESYCETWRTEAPSATGQASSLLGGRLLGQSAASCHHAYIVLCIENSFMTASK
modifications: Endostatin disulfide-linked dimer
notes: disulfide-linked endostatin dimer, glutamine to cysteine at position 7, released from Fc-endostatin by enterokinase
With B2, in the data set with fibronectin [2], the “binding to fibronectin (Elisa)” value was “bound fibronectin”. For the same molecule, in the data set with fibronectin [3], the “equilibrium binding constant” value is on record as “High affinity constants”.
